Experimental data as given in patent US20210228713A1, “TLR7 PEPTIDE CONJUGATES” (Apros Therapeutics, Inc., priority 2018, published 2021).
Like-named read-outs stand apart in the source and are kept apart here. No end group written: not given here.

Target: T1, human TLR7 (hTLR7) (Homo sapiens, UniProt Q9NYK1)
T1 construct: host or cells: HEK293 (HEK-Blue hTLR7)
T1 sequence (Q9NYK1 27-1049): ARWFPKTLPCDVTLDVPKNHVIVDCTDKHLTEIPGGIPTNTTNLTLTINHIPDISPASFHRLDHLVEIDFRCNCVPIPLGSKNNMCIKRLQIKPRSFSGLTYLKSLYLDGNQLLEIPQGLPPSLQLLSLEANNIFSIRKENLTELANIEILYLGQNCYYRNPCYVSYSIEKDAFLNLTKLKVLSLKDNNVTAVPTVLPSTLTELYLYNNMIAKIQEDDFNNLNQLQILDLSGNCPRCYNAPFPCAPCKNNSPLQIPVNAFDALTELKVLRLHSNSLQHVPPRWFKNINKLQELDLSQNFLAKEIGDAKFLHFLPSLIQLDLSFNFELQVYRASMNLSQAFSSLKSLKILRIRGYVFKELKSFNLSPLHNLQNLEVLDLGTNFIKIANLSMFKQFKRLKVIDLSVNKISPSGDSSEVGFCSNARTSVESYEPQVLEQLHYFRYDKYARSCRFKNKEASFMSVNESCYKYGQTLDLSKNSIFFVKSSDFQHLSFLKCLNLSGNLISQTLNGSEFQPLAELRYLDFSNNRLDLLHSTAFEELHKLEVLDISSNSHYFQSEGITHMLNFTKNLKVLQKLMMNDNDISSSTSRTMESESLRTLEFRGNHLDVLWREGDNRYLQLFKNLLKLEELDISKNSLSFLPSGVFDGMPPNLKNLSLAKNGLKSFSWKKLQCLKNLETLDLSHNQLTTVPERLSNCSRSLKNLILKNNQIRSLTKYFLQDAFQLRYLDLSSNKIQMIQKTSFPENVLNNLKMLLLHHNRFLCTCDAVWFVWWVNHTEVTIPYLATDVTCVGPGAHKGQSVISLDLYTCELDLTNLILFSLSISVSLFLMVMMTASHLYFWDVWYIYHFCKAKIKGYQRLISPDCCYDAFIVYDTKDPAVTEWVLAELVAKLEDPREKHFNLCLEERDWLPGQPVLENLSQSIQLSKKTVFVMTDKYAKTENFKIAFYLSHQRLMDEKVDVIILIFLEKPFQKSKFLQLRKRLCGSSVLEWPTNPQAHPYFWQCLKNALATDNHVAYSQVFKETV
Assay: HEK-Blue hTLR7 cell assay (NF-kB/AP-1 driven SEAP reporter)
Assay type: cell-based
Description: HEK-Blue™ TLR7 cells were purchased from Invivogen (San Diego, Calif.). The following description was taken from the product information sheet.
“HEK-Blue™ hTLR7 cells are designed for studying the stimulation of human TLR7 (hTLR7) by monitoring the activation of NF-kB. HEK-Blue™ hTLR7 cells were obtained by co-transfection of the hTLR7 gene and an optimized secreted embryonic alkaline phosphatase (SEAP) reporter gene into HEK293 cells. The SEAP reporter gene is placed under the control of the IFN-b minimal promoter fused to five NF-kB and AP-1-binding sites. Stimulation with a TLR7 ligand activates NF-kB and AP-1 which induce the production of SEAP, which is detected by the HEK-Blue™ Detection cell culture medium.”
A typical assay protocol involved the following steps:
1. Cells were cultured according to the product information sheet.
2. 10 mM compound stock in DMSO were first diluted to 3 mM and then 3-fold serially diluted using DMSO to afford a 10-pt dilution.
3. 3 μl of the diluted DMSO were added to 57 μl HEK-Blue™ Detection media for a further 20-fold dilution.
4. 10 μl of the diluted compound in assay media were added into 40 μl cell culture (in HEK-Blue™ Detection media) in 384-well plate. Final cell concentration=8,000 cells per well.
5. The plates were incubated at 37° C. in 5% CO2 for 16 h. SEAP was determined using a spectrophotometer at 620-655 nm.

[1] = HEK TLR7 activity of unconjugated (naked) peptides, read-out: EC50, Peptide without Compound 1

## DTIWALSVKYGVSVQDIMSWNNLSS [AP7]
  EC50: > 10 µM

## EQLSSVSSFERFEIFPKESSWPNHN [AP11]
  EC50: > 30 µM

## ESLKISQAVHAAHAEINEAGREVVG [AP10]
  EC50: > 30 µM

## LGRLMYDMYPHFMPTNLGPSEKRVW [AP8]
[1]
  EC50: > 30 µM

## LLTRILTIPQSLDSWWTSLNFLGGS [AP9]
[1]
  EC50: > 30 µM

## NRFVSIFASGPSQKIQLVNNNGSWH [AP5]
[1]
  EC50: > 30 µM

## TLTCGFADLMGYIPLVGAPLGGAAR [AP3]
[1]
  EC50: > 30 µM
